According to patent publication US12723074B2, “Medicament for treatment and/or prevention of cancer” (TORAY INDUSTRIES, INC., priority 2020, dated 2026):
One block for each molecule: values may come before it.

Legend:
[1] = tested on: Human breast cancer cells BT474; experiment: Antitumor effect in human breast cancer BT474-bearing NOG mice (combination with axitinib); assay type: in vivo; conditions: day 63 after cancer bearing
Description: Likewise, in vivo antitumor effect in cancer-bearing mouse was evaluated by administering a combination of the anti-CAPRIN-1 antibody (anti-CAPRIN-1 humanized antibody #1) produced in Example 1, and an anti-vascular endothelial growth factor receptor (VEGFR) inhibitor.
Specifically, the antitumor effect of the combination of the anti-CAPRIN-1 antibody and axitinib according to the present invention was studied using NOG mice in which human-derived cancer cells expressing CAPRIN-1 protein were subcutaneously transplanted. Human breast cancer cells BT474 were subcutaneously transplanted at 2×10^7 cells per mouse as a mixture with Matrigel and allowed to grow until a tumor became approximately 100 mm^3 to prepare cancer-bearing mice. Each anti-CAPRIN-1 antibody produced in Example 1 was administered at 10 mg/kg once a week to the tail veins of five cancer-bearing mice described above. To these mice, administration of axitinib was started simultaneously with the initial administration of the anti-CAPRIN-1 antibody, and the administration was performed at 5 or 25 mg/kg twice a day for 9 days and then once a day for 15 days.
For a comparative control group, the same dose of the same anti-CAPRIN-1 antibody as above was administered once a week to cancer-bearing mice. For another comparative control group, axitinib was administered at the same administration intervals and dose as above to other individuals of cancer-bearing mice. Cancer-bearing mice in a non-treatment group were used as negative controls. After the start of administration, the sizes of cancers in the cancer-bearing mice were measured over time using calipers. Tumor volumes were calculated according to a standard method using a calculation expression: (Length of the major axis of the tumor)×(Length of the minor axis of the tumor)^2×0.5.

[2] = tested on: gastroesophageal junction cancer or gastric adenocarcinoma; conditions: RAINBOW trial patients; cited from earlier work
[3] = tested on: Human breast cancer cells BT474; experiment: Antitumor effect in human breast cancer BT474-bearing NOD-SCID mice (combination with bevacizumab); assay type: in vivo; conditions: day 41 after cancer bearing, antibody 10 mg/kg once a week, bevacizumab 1.25 mg/kg once a week
Description: Human breast cancer cells BT474 were subcutaneously transplanted at 2×10^7 cells per mouse as a mixture with Matrigel (Sigma) and allowed to grow until a tumor became approximately 100 mm^3 to prepare cancer-bearing mice.
For a comparative control group, the same dose of the same anti-CAPRIN-1 antibody as above was administered once a week to cancer-bearing mice. […] Cancer-bearing mice in a non-treatment group were used as negative controls. After the start of administration, the sizes of cancers in the cancer-bearing mice were measured over time using calipers. Tumor volumes were calculated according to a standard method using a calculation expression: (Length of the major axis of the tumor)×(Length of the minor axis of the tumor)^2×0.5.

[4] = biological target: T1, CAPRIN-1 on the cell membrane surface of mouse kidney cancer cells (Renca) and mouse breast cancer cells (4T1) (Mus musculus, UniProt Q60865); experiment: Flow cytometry reactivity with cell membrane surface of mouse cancer cells expressing CAPRIN-1; assay type: binding; conditions: mouse cancer cells Renca and 4T1
T1 construct: endogenous in cells; host or cells: Renca, 4T1
T1 sequence (Q60865 1-707): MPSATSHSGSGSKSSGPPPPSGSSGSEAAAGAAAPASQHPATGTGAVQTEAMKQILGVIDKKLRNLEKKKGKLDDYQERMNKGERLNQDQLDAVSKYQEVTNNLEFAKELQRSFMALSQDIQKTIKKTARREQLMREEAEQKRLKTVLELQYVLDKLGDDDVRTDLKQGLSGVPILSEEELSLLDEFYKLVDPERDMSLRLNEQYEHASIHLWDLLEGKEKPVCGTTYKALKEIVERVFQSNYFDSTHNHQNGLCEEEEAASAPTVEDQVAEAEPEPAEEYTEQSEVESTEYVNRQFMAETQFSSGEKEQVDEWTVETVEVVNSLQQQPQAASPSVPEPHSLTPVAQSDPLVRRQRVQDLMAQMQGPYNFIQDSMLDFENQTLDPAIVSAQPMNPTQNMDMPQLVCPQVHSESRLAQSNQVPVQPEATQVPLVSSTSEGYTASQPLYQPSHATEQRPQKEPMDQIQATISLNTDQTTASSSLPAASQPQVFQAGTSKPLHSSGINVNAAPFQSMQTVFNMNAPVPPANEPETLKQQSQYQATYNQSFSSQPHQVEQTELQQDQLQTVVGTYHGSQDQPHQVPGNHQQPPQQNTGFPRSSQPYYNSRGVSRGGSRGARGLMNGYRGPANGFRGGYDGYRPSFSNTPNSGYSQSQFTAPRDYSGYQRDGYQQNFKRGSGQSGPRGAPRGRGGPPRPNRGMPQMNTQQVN
Source text: (§1) The reactivity of the anti-CAPRIN-1 antibody with cancer cells without permeation treatment of cell membrane was examined by flow cytometry to confirm that a portion of CAPRIN-1 was expressed on the cell membrane surface of cancer cells as shown in Examples given below.

[5] = biological target: T2, CAPRIN-1 on the cell membrane surface of human cancer cells (Homo sapiens, UniProt Q14444); experiment: Flow cytometry reactivity with cell membrane surface of human cancer cells expressing CAPRIN-1; assay type: binding; conditions: human cancer cells BT-474, HT-29, QG56, H1650, NCI-N87, HEC-1-A, 22Rv1, Panc10.5, Hep3B, SKOV3, Caki-2, U-87MG, T24, OE33, OCI-AIM5, Ramos, TGBC14TKB, HT-1080, G-361
T2 construct: endogenous in cells; host or cells: BT-474, HT-29, QG56, H1650, NCI-N87, HEC-1-A, 22Rv1, Panc10.5, Hep3B, SKOV3, Caki-2, U-87MG, T24, OE33, OCI-AIM5, Ramos, TGBC14TKB, HT-1080, G-361
T2 sequence (Q14444 1-709): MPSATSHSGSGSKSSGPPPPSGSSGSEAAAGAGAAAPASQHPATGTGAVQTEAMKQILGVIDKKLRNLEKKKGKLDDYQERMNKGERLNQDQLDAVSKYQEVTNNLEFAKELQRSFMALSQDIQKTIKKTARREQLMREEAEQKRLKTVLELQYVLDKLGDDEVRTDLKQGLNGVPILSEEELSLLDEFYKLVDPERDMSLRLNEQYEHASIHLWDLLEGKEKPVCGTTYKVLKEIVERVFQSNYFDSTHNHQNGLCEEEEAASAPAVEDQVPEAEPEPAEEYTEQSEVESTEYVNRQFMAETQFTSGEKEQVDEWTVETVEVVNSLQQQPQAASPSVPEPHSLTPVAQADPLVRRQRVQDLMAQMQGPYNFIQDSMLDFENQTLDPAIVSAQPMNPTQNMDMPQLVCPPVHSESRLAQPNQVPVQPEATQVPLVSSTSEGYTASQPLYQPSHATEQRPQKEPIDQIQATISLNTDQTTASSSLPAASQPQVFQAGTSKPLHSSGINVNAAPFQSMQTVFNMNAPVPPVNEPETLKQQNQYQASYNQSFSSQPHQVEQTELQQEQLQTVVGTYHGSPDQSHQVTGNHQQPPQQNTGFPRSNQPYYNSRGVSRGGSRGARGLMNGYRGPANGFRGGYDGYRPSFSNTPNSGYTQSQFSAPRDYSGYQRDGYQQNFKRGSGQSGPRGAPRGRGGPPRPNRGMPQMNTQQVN
Source text: Reactivity of each monoclonal antibody with human cancer cells confirmed to express CAPRIN-1 protein on the cell membrane surface was further confirmed by flow cytometry.
as §1

Molecule: CNC(=O)c1ccccc1Sc1ccc2c(/C=C/c3ccccn3)n[nH]c2c1 [axitinib]
tumor volume when the tumor volume of the negative control was defined as 100% ([1]; axitinib 5 mg/kg (alone or with antibody 10 mg/kg once a week)): 39%
tumor volume when the tumor volume of the negative control was defined as 100% ([1]; axitinib 25 mg/kg (alone or with antibody 10 mg/kg once a week)): 27%

Molecule: CC(=O)O[C@H]1C(=O)[C@@]2(C)[C@H]([C@H](OC(=O)c3ccccc3)[C@]3(O)C[C@H](OC(=O)[C@H](O)[C@@H](NC(=O)c4ccccc4)c4ccccc4)C(C)=C1C3(C)C)[C@]1(OC(C)=O)CO[C@@H]1C[C@@H]2O [paclitaxel]
median overall survival [2]: 7.4 months
median progression-free survival [2]: 2.9 months

reactivity with the cell membrane surface of cancer cells (fluorescence intensity vs IgG control) [4]: reacted strongly
reactivity with the cell membrane surface of cancer cells (fluorescence intensity vs IgG control) [5]: reacted strongly
B1: anti-CAPRIN-1 humanized antibody #1: humanized IgG1 antibody with CDRs of the mouse anti-CAPRIN-1 monoclonal antibody (heavy chain SEQ ID NO: 114, light chain SEQ ID NO: 115) (antibody, listed as Mus musculus)
heavy: GPELVKPGASVKMSCKASGYTFTSYVMHWVKQKPGQGLEWIGYINPYNDGTKYNEKFKGKATLTSDKSSSTAYMELSSLTSEDSAVYYCARRYYYGSSGGYFDVWAQDHVRT
light: DVQITQSPSYLAASPGETITINCRASKSISKYLAWYQEKPGKTNKLLIYSGSTLQSGIPSRFSGSGSGTDFTLTISSLEPEDFAMYYCQQHNEYPYTFGGGTKLEIKR
tumor volume when the tumor volume of the negative control was defined as 100% [3]: 52%
tumor volume when the tumor volume of the negative control was defined as 100% ([1]; antibody alone 10 mg/kg once a week): 40%
